By IC50 is commonly meant the midpoint of a concentration-inhibition curve.

Bridge positions count the residues as written; N and C are the ends. Square brackets hold non-standard residues; d marks the D form. Peptide text beside a SMILES is read from it. * marks the point of attachment. ξ: configuration not given here. Phe(4-COOH) = N[C@@H](Cc1ccc(C(=O)O)cc1)C(=O)O; Bip = N[C@@H](Cc1ccc(-c2ccccc2)cc1)C(=O)O; NH(CH2)14COOH = O=C(O)CCCCCCCCCCCCCCN*; Phe(3-Me) = Cc1cccc(C[C@H](N)C(=O)O)c1; Val(3-OH) = CC(C)(O)[C@H](N)C(=O)O; 4Pal = N[C@@H](Cc1ccncc1)C(=O)O; Cha = N[C@@H](CC1CCCCC1)C(=O)O; Cit = NC(=O)NCCC[C@H](N)C(=O)O; Thr(3ξ) = CC(O)[C@H](N)C(=O)O; 12Ado = NCCCCCCCCCCCC(=O)O; Carboxymethyl = O=C(O)C*; NMeA = CN[C@@H](C)C(=O)O; Orn = NCCC[C@H](N)C(=O)O; Pra = C#CC[C@H](N)C(=O)O; Aun = NCCCCCCCCCCC(=O)O; Dab = NCC[C@H](N)C(=O)O; Dap = NC[C@H](N)C(=O)O; AEEA = NCCOCCOCC(=O)O; Piv = CC(C)(C)C(=O)*

This test deals with T1, PD-1/PD-L1 interaction (PE-labeled human PD-L1-Ig binding to Jurkat cell line over-expressing human PD-1) (Homo sapiens, UniProt Q15116).
T1 construct: expressed in transfected cells; host or cells: Jurkat
T1 sequence (Q15116 25-288): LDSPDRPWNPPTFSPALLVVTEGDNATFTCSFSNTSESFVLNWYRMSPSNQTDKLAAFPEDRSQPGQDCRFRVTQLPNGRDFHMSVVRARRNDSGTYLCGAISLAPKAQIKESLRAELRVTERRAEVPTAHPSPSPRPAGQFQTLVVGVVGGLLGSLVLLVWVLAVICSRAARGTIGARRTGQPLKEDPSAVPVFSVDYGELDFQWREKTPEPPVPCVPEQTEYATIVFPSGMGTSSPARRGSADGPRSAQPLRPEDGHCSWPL
In words: Jurkat-PD-1 Cell Binding High-Content Screening Assay (CBA). The format is cell-based. The note with it: Jurkat cell line over-expressing human PD-1; PE-labeled PD-L1-Ig 20 nM final; read-out: Jurkat hPD1-PDL1 IC50. In outline: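 Jurkat cells stably over-expressing human PD-1 were seeded in DMEM with 10% fetal calf serum and pre-incubated with compound for 2 h at 37° C. PE-labeled human PD-L1-Ig was then added at 20 nM final for 1 hour, after which cells were fixed with paraformaldehyde, Hoechst-stained and imaged by high-content microscopy.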
For the compound `Cc1cccc(C[C@@H]2NC(=O)[C@H](CC(=O)O)NC(=O)[C@H](Cc3ccc(OCC(=O)O)cc3)NC(=O)[C@H](CCCNC(=N)N)NC(=O)CSC[C@@H](C(=O)N[C@@H](CCN)C(=O)NCCCCCCCCCCC(=O)O)NC(=O)[C@H]([C@@H](C)O)NC(=O)[C@H](C(C)C)NC(=O)[C@H](CC3CCCCC3)NC(=O)[C@H](CCN)NC(=O)[C@@H](CC(C)C)NC(=O)[C@H](CCCN)NC(=O)[C@H](Cc3ccc(O)cc3)NC(=O)[C@H](Cc3ccc(-c4ccccc4)cc3)NC(=O)[C@H](Cc3ccc(O)cc3)NC2=O)c1` [Compound 2726] ({CH2CO}-RY(Carboxymethyl)D[Phe(3-Me)]Y[Bip]Y[Orn][dL][Dab][Cha]VTC[Dab][Aun]-OH; thioether N-14), the IC50 turned out to be 24.1 nM.

As to `Cc1cccc(C[C@@H]2NC(=O)[C@H](CC(=O)O)NC(=O)[C@H](Cc3ccc(OCC(=O)O)cc3)NC(=O)[C@H](CCCNC(=N)N)NC(=O)CSC[C@@H](C(=O)N[C@H](CC(N)=O)C(=O)NCCCCCCCCCCC(=O)O)NC(=O)[C@H](C(C)O)NC(=O)[C@H](CO)NC(=O)[C@H](CC3CCCCC3)NC(=O)[C@H](CCN)NC(=O)[C@@H](CC(C)C)NC(=O)[C@H](CCCN)NC(=O)[C@H](Cc3ccc(OCC(=O)O)cc3)NC(=O)[C@H](Cc3ccc(-c4ccccc4)cc3)NC(=O)[C@H](Cc3c[nH]c4ccccc34)NC2=O)c1` (stereo partly drawn) [Compound 3525] ({CH2CO}-RY(Carboxymethyl)D[Phe(3-Me)]W[Bip]Y(Carboxymethyl)[Orn][dL][Dab][Cha]S[Thr(3ξ)]C[dN][Aun]-OH; thioether N-14), the IC50 was determined as 346 nM.

Regarding `Cc1cccc(C[C@@H]2NC(=O)[C@H](CC(=O)O)NC(=O)[C@H](Cc3ccc(OCC(=O)O)cc3)NC(=O)[C@H](CCCNC(=N)N)NC(=O)CSC[C@@H](C(=O)NCCOCCOCC(=O)N[C@@H](CCN)C(=O)NCCCCCCCCCCC(=O)O)NC(=O)[C@H](CCCCN)NC(=O)[C@H](C(C)C)NC(=O)[C@H](CC3CCCCC3)NC(=O)[C@H](CN)NC(=O)[C@@H](CC(C)C)NC(=O)[C@H](CCCN)NC(=O)[C@H](C(C)C)NC(=O)[C@H](Cc3ccc(-c4ccccc4)cc3)NC(=O)[C@H](C(C)C)NC2=O)c1` [Compound 3293] ({CH2CO}-RY(Carboxymethyl)D[Phe(3-Me)]V[Bip]V[Orn][dL][Dap][Cha]VKC[AEEA][Dab][Aun]-OH; thioether N-14), the half-maximal inhibitory concentration (IC50) stood at 5 nM.

Regarding `Cc1cccc(C[C@@H]2NC(=O)[C@H](CC(=O)O)NC(=O)[C@H](Cc3ccc(C(=O)O)cc3)NC(=O)[C@H](Cc3ccncc3)NC(=O)CSC[C@@H](C(=O)N[C@@H](CCN)C(=O)NCCCCCCCCCCC(=O)O)NC(=O)[C@H](CO)NC(=O)[C@H](C(C)(C)O)NC(=O)[C@H](CC3CCCCC3)NC(=O)[C@H](CCN)NC(=O)[C@@H](CC(C)C)NC(=O)[C@H](CCCN)NC(=O)[C@H](Cc3ccc(OCC(=O)O)cc3)NC(=O)[C@H](Cc3ccc(-c4ccccc4)cc3)NC(=O)[C@H](Cc3ccc(OCC(=O)O)cc3)NC2=O)c1` [Compound 2177] ({CH2CO}-[4Pal][Phe(4-COOH)]D[Phe(3-Me)]Y(Carboxymethyl)[Bip]Y(Carboxymethyl)[Orn][dL][Dab][Cha][Val(3-OH)]SC[Dab][Aun]-OH; thioether N-14), the IC50 came to 144 nM.

As for `Cc1cccc(C[C@@H]2NC(=O)[C@H](CC(=O)O)NC(=O)[C@H](Cc3ccc(OCC(=O)O)cc3)NC(=O)[C@H](Cc3ccncc3)NC(=O)CSC[C@@H](C(=O)N[C@@H](CCCN)C(=O)N[C@@H](CO)C(=O)NCCCCCCCCCCCC(=O)O)NC(=O)[C@H](C(C)O)NC(=O)[C@H](C(C)C)NC(=O)[C@H](CC3CCCCC3)NC(=O)[C@H](CCN)NC(=O)[C@@H](CC(C)C)NC(=O)[C@H](CCCN)NC(=O)[C@H](CCCNC(N)=O)NC(=O)[C@H](Cc3ccc(-c4ccccc4)cc3)NC(=O)[C@H](C(C)C)NC2=O)c1` (stereo partly drawn) [Compound 3585] ({CH2CO}-[4Pal]Y(Carboxymethyl)D[Phe(3-Me)]V[Bip][Cit][Orn][dL][Dab][Cha]V[Thr(3ξ)]C[Orn]S[12Ado]-OH; thioether N-14), the IC50 came to 30.8 nM.

For `Cc1cccc(C[C@@H]2NC(=O)[C@H](CC(=O)O)NC(=O)[C@H](Cc3ccc(OCC(=O)O)cc3)NC(=O)[C@H](CCCNC(=N)N)NC(=O)CSC[C@@H](C(=O)N[C@@H](CCN)C(=O)NCCCCCCCCCCCCCCC(=O)O)NC(=O)[C@H](CO)NC(=O)[C@H](C(C)(C)O)NC(=O)[C@H](CC3CCCCC3)NC(=O)[C@H](CCN)NC(=O)[C@@H](CC(C)C)NC(=O)[C@H](CCCN)NC(=O)[C@H](Cc3ccc(OCC(=O)O)cc3)NC(=O)[C@H](Cc3ccc(-c4ccccc4)cc3)NC(=O)[C@H](Cc3ccc(OCC(=O)O)cc3)NC2=O)c1` [Compound 2228] ({CH2CO}-RY(Carboxymethyl)D[Phe(3-Me)]Y(Carboxymethyl)[Bip]Y(Carboxymethyl)[Orn][dL][Dab][Cha][Val(3-OH)]SC[Dab]-{NH(CH2)14COOH}; thioether N-14), the IC50 was 78.1 nM.

On to `Cc1cccc(C[C@@H]2NC(=O)[C@H](CC(=O)O)NC(=O)[C@H](Cc3ccc(OCC(=O)O)cc3)NC(=O)[C@H](CCN)NC(=O)CSC[C@@H](C(=O)N[C@@H](CCN)C(=O)NCCOCCOCC(=O)NCCOCCOCC(=O)NCCCCCCCCCCCCCCC(=O)O)NC(=O)[C@H](Cc3cnc[nH]3)NC(=O)[C@H](C(C)(C)O)NC(=O)[C@H](CC3CCCCC3)NC(=O)[C@H](CCN)NC(=O)[C@@H](CC(C)C)NC(=O)[C@H](CCCN)NC(=O)[C@H](Cc3ccc(C(=O)O)cc3)NC(=O)[C@H](Cc3ccc(-c4ccccc4)cc3)NC(=O)[C@H](Cc3ccc(C(=O)O)cc3)NC2=O)c1` [Compound 3762] ({CH2CO}-[Dab]Y(Carboxymethyl)D[Phe(3-Me)][Phe(4-COOH)][Bip][Phe(4-COOH)][Orn][dL][Dab][Cha][Val(3-OH)]HC[Dab][AEEA][AEEA]-{NH(CH2)14COOH}; thioether N-14), for which the half-maximal inhibitory concentration (IC50) worked out at 27.5 nM.

For `Cc1cccc(C[C@@H]2NC(=O)[C@H](CC(=O)O)NC(=O)[C@H](Cc3ccc(OCC(=O)O)cc3)NC(=O)[C@H](CCN)NC(=O)CSC[C@@H](C(=O)N[C@@H](CCN)C(=O)NCCOCCOCC(=O)NCCCCCCCCCCC(=O)O)NC(=O)[C@H](CCCN)NC(=O)[C@H](C(C)C)NC(=O)[C@H](CC3CCCCC3)NC(=O)[C@H](CCN)NC(=O)[C@@H](CC(C)C)NC(=O)[C@H](CCCN)NC(=O)[C@H](CCCCNC(=O)C(C)(C)C)NC(=O)[C@H](Cc3ccc(-c4ccccc4)cc3)NC(=O)[C@H](CCCCNC(=O)C(C)(C)C)NC2=O)c1` [Compound 3609] ({CH2CO}-[Dab]Y(Carboxymethyl)D[Phe(3-Me)]K(Piv)[Bip]K(Piv)[Orn][dL][Dab][Cha]V[Orn]C[Dab][AEEA][Aun]-OH; thioether N-14), the concentration for half-maximal inhibition (IC50) was 18.8 nM.

In the case of `C#CC[C@H](NC(=O)COCCOCCNC(=O)[C@H](CCN)NC(=O)[C@@H]1CSCC(=O)N[C@@H](Cc2ccncc2)C(=O)N[C@@H](Cc2ccc(OCC(=O)O)cc2)C(=O)N[C@@H](CC(=O)O)C(=O)N[C@@H](Cc2c[nH]c3ccccc23)C(=O)N[C@@H](C(C)C)C(=O)N[C@@H](Cc2ccc(-c3ccccc3)cc2)C(=O)N[C@@H]([C@@H](C)CC)C(=O)N[C@@H](CCCN)C(=O)N[C@H](CC(C)C)C(=O)N[C@@H](CCN)C(=O)N[C@@H](CC(C)C)C(=O)N[C@@H](C(C)C)C(=O)N[C@@H]([C@@H](C)O)C(=O)N1)C(=O)N[C@@H](CCCCN)C(=O)NCCCCCCCCCCC(=O)O` [Compound 1196] ({CH2CO}-[4Pal]Y(Carboxymethyl)DWV[Bip]I[Orn][dL][Dab]LVTC[Dab][AEEA][Pra]K[Aun]-OH; thioether N-14), the concentration for half-maximal inhibition (IC50) was found to be 9.6 nM.

Turning to `Cc1cccc(C[C@@H]2NC(=O)[C@H](CC(=O)O)NC(=O)[C@H](Cc3ccc(OCC(=O)O)cc3)NC(=O)[C@H](CN)NC(=O)CSC[C@@H](C(=O)N[C@@H](CCN)C(=O)NCCOCCOCC(=O)NCCCCCCCCCCC(=O)O)NC(=O)[C@H](CCCN)NC(=O)[C@H](C(C)C)NC(=O)[C@H](CC3CCCCC3)NC(=O)[C@H](CCN)NC(=O)[C@@H](CC(C)C)NC(=O)[C@H](CCCN)NC(=O)[C@H](Cc3ccc(O)cc3)NC(=O)[C@H](Cc3ccc(-c4ccccc4)cc3)NC(=O)[C@H](Cc3ccc(OCC(=O)O)cc3)NC2=O)c1` [Compound 2059] ({CH2CO}-[Dap]Y(Carboxymethyl)D[Phe(3-Me)]Y(Carboxymethyl)[Bip]Y[Orn][dL][Dab][Cha]V[Orn]C[Dab][AEEA][Aun]-OH; thioether N-14), the 50% inhibitory concentration (IC50) was 4 nM.

On to `Cc1cccc(C[C@@H]2NC(=O)[C@H](CC(=O)O)NC(=O)[C@H](Cc3ccc(OCC(=O)O)cc3)NC(=O)[C@H](Cc3ccncc3)NC(=O)CSC[C@@H](C(=O)N[C@@H](CCN)C(=O)NCCCCCCCCCCC(=O)O)NC(=O)[C@H](CO)NC(=O)[C@H](C(C)(C)O)NC(=O)[C@H](CC3CCCCC3)NC(=O)[C@H](CCN)NC(=O)[C@@H](CC(C)C)NC(=O)[C@H](CCCN)NC(=O)[C@H](Cc3ccc(OCC(=O)O)cc3)NC(=O)[C@H](Cc3ccc(-c4ccccc4)cc3)NC(=O)[C@H](C(C)(C)O)NC2=O)c1` [Compound 2187] ({CH2CO}-[4Pal]Y(Carboxymethyl)D[Phe(3-Me)][Val(3-OH)][Bip]Y(Carboxymethyl)[Orn][dL][Dab][Cha][Val(3-OH)]SC[Dab][Aun]-OH; thioether N-14), for which the concentration for half-maximal inhibition (IC50) stood at 31.3 nM.

In the case of `Cc1cccc(C[C@@H]2NC(=O)[C@H](CC(=O)O)NC(=O)[C@H](Cc3ccc(OCC(=O)O)cc3)NC(=O)[C@H](C(C)O)NC(=O)CSC[C@@H](C(=O)N(C)[C@@H](C)C(=O)NCCOCCOCC(=O)NCCCCCCCCCCC(=O)O)NC(=O)[C@H](CCCN)NC(=O)[C@H](C(C)C)NC(=O)[C@H](CC3CCCCC3)NC(=O)[C@H](CCN)NC(=O)[C@@H](CC(C)C)NC(=O)[C@H](CCN)NC(=O)[C@H](C(C)C)NC(=O)[C@H](Cc3ccc(-c4ccccc4)cc3)NC(=O)[C@H](C(C)C)NC2=O)c1` (stereo partly drawn) [Compound 3320] ({CH2CO}-[Thr(3ξ)]Y(Carboxymethyl)D[Phe(3-Me)]V[Bip]V[Dab][dL][Dab][Cha]V[Orn]C[NMeA][AEEA][Aun]-OH; thioether N-14), the IC50 was found to be 68.5 nM.

The record behind these values is patent publication US20260022142A1, “MACROCYCLIC IMMUNOMODULATORS” (Bristol-Myers Squibb Company, priority 2022, published 2026).
